Laboratory results from publication PMC7565406, “BMS-599626, a Highly Selective Pan-HER Kinase Inhibitor, Antagonizes ABCG2-Mediated Drug Resistance” (Cancers, 2020).

Key:
ABCG2 [1] = target: T1, ABCG2 (Homo sapiens, UniProt Q9UNQ0); test: vanadate-sensitive ATPase assay in ABCG2 membrane vesicles; supported by [3H]-mitoxantrone accumulation and efflux in cells; format: biochemical; design: membrane vesicles prepared from ABCG2 expressing High-five insect cells
T1 sequence (Q9UNQ0 1-655): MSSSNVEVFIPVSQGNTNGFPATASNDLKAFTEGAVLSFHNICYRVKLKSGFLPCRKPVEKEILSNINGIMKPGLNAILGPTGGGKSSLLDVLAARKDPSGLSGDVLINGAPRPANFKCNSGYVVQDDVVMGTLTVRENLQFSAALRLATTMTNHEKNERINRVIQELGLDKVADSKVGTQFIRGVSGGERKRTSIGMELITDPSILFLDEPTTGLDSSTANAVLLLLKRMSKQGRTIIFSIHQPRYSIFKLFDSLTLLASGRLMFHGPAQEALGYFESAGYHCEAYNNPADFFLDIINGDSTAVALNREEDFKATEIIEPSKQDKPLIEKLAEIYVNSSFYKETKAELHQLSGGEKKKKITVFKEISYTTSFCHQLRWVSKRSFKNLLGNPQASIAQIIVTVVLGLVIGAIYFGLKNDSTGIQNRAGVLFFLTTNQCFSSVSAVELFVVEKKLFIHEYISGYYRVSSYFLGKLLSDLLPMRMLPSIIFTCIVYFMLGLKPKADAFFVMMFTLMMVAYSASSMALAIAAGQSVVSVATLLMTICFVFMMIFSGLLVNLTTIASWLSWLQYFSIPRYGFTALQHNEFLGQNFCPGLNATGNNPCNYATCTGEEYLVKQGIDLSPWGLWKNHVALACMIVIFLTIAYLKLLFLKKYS

ABCG2 [2] = target: T1, ABCG2; test: radiolabelled drug efflux in ABCG2-overexpressing versus parental cells; format: cell-based; design: wild-type ABCG2 (R482) in HEK293 cells; NCI-H460/MX20 cells

Structure (SMILES) | vanadate-sensitive ATPase assay in ABCG2 membrane vesicles; supported by [3H]-mi (ABCG2 [1]) | radiolabelled drug efflux in ABCG2-overexpressing versus parental cells (ABCG2 [2])
Cc1c(NC(=O)OC[C@@H]2COCCN2)cn2ncnc(Nc3ccc4c(cnn4Cc4cccc(F)c4)c3)c12 [BMS-599626, [4-[[1-(3-fluorophenyl)methyl]-1H-indazol5-ylamino]-5-methylpyrrolo [2,1-f][1,2,4]triazin6-yl]carbamic acid, (3S)-3-morpholinylmethyl ester] | 7.6 fold inhibition of ATPase activity at 3 µM | –
O=C1c2c(O)ccc(O)c2C(=O)c2c(NCCNCCO)ccc(NCCNCCO)c21 [mitoxantrone] | – | ABCG2-overexpressing cell lines showed a significantly higher efflux activity compared to parental cell lines
